These results are taken from paper PMC12442245, “Activity Analysis of the P2X Receptor Antagonist PPADS against Signal Transducer and Activator of Transcription Proteins” (Chembiochem, 2025).

The target of this assay is T1, STAT5b (Homo sapiens, UniProt P51692).
T1 sequence (P51692 1-787): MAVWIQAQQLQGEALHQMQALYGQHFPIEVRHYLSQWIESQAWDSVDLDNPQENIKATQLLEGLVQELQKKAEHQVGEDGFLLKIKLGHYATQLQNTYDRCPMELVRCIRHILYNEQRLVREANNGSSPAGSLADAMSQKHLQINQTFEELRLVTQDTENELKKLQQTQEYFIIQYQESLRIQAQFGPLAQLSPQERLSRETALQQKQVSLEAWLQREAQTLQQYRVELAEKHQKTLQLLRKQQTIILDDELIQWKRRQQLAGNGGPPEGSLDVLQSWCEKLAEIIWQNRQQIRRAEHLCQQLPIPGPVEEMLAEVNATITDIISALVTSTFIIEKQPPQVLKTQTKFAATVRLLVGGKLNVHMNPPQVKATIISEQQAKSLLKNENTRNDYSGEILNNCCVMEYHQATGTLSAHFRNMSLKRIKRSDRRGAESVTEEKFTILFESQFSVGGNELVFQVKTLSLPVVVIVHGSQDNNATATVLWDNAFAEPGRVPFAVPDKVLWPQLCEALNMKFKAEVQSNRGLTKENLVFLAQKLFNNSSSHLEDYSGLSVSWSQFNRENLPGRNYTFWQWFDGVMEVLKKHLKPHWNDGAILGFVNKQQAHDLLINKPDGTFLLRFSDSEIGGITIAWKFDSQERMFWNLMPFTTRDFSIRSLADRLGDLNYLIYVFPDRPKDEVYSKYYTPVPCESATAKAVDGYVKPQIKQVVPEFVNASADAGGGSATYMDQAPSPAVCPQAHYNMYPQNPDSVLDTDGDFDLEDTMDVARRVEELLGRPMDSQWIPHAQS
The assay can be described thus: HTRF assay, STAT5b. Type of assay: binding. The settings on record: STAT5b 80 nM, without reducing agent, 1 h. The text has this: The azo dyes PPADS and iso‐PPADS have a deep red color in aqueous solution. […] In order to exclude this possibility, we established homogeneous time‐resolved fluorescence resonance energy transfer (HTRF) assays to confirm the degree of binding between STAT4, STAT5a, and STAT5b and the respective 5‐carboxyfluorescein‐labeled binding peptides used in the FP assay. In addition, an HTRF assay was established for STAT3, one of the STAT proteins targeted to a lesser extent in FP assays, as a specificity control (Figure 1B,C). The STAT protein constructs each contain a 6x‐His‐tag.^[ [15], [16], [17], [22] ^] A Tb^3+‐cryptate fused to an anti‐6x‐His antibody was chosen as the long‐lived fluorescent donor, while the carboxyfluorescein linked to the respective STAT‐binding peptides served as the acceptor (Figure 2A). Emission was measured with a time delay of 60 μs after excitation, allowing any initial compound fluorescence to decay beforehand. […]
Screening of chemical libraries comprising approximately 5000 known bioactive compounds in fluorescence polarization-based assays against phosphorylation-dependent protein-protein interaction domains, including STAT proteins, has been described.[1] […]
Fluorescence polarization assays
Competitive fluorescence polarization (FP) assays for STAT1,[2] […] Briefly, peptide binding to proteins was analyzed using the following carboxyfluorescein (CF) -labelled pepti des at a concentration of 10 nM: STAT1: 5-CF-GpYDKPHVL-OH, STAT3: 5-CF-GpYLPQTV -NH2, STAT4: 5-CF-GpYLPQNID-OH, STAT5a and STAT5b: 5-CF-GpYLVLDKW-OH, STAT6: 5- […]
CFGp[…]-OH. […] FP was measured using an Infinite F500 plate reader (Tecan) and measurements were converted into percent inhibition according to the binding curve equation. Curves were plotted and best fits calculated using OriginPro […]
Homogenous time-resolved fluorescence (HTRF) assays for STAT3, STAT4, STAT5a and STAT5b were carried out using Cisbio Monoclonal Antibody Anti-6His-Tb Gold as the fluorescence donor (Perkin Elmer) and the corresponding CF-labelled binding peptide as the acceptor. […] The average reading from 3 wells was obtained. […]
In general terms: TR-FRET usually uses a lanthanide donor and a delayed reading to cut background.

The term IC50 denotes the midpoint of a concentration-inhibition curve. A lower IC50 goes with greater potency in that assay.

For the molecule `Cc1nc(/N=N/c2cc(S(=O)(=O)O)ccc2S(=O)(=O)O)c(COP(=O)(O)O)c(C=O)c1O` [iso‐PPADS], the IC50 is 800 ± 100 nM.
Next, `Cc1nc(/N=N/c2ccc(S(=O)(=O)O)cc2S(=O)(=O)O)c(COP(=O)(O)O)c(C=O)c1O` [PPADS, pyridoxalphosphate‐6‐azophenyl‐2',4'‐disulfonic acid]: 1220 ± 270 nM.
